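Assay format: 96-well plates, 48-hour exposure. The concentration for 50% growth inhibition is given as GI50.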 Activity calls are given as the source filed them. No stated cut-off is given here; in the data, active = GI50 up to about 1.1 µM and inactive = higher. Square brackets hold non-standard residues; d marks the D form. Peptide text beside a SMILES is read from it. Ac5c = NC1(C(=O)O)CCCC1 Where only a bound is given, the exact number is not on record here.

This is an account of results in ChEMBL document CHEMBL1201862, “PubChem BioAssay data set” (2004).

Experiment in all cases: NCI tumour cell line growth inhibition, 48 h
In assay [1] the test system is Hs-578T.
Assay [2] deals with Malme-3M.
Assay [3] has as its system UACC-62.
The test system of assay [4] is RPMI-8226.
The test system of assay [5] is NCI/ADR-RES.
Assay [6] concerns NCI-H522.
Assay [7] relates to HCT-116.
The test system of assay [8] is MDA-N.
The subject of assay [9] is SNB-19.
In assay [10] the test system is HT-29.
For assay [11], the system named is CCRF-CEM.
Assay [12] relates to SR.
For assay [13], the system named is U-251.
The subject of assay [14] is CAKI-1.
Assay [15] relates to PC-3.
Assay [16] deals with HOP-92.
The test system of assay [17] is 786-0.
Assay [18] deals with T47D.

On to `CC(C)/C(Cl)=N/OC(=O)Nc1ccc(OC(F)(F)F)cc1`, for which the GI50 in assay [1] is 15.8 µM (inactive); in assay [2], 2.48 µM (inactive); in assay [3], 16.3 µM (inactive); in [4] it was 2.49 µM (inactive); in assay [5], 17 µM (inactive); in assay [6], 1.47 µM (inactive). The GI50 in assay [7] was 6.65 µM (inactive); in assay [8], 13.4 µM (inactive); in [9], 17.7 µM (inactive); in [10], 18.6 µM (inactive); in [11], 1.27 µM (inactive); in assay [12], 1.94 µM (inactive). The GI50 in assay [13] was 17.3 µM (inactive); in [14], 5.2 µM (inactive); in assay [15], 16.1 µM (inactive); in assay [16], 1.68 µM (inactive); in [17], 6.81 µM (inactive); in assay [18], 8.55 µM (inactive).
In the case of `C(=N\c1ccc(-c2nc3ccccc3[nH]2)cc1)/c1cccs1`, the GI50 in assay [1] is > 100 µM (inactive); in assay [2] it was > 100 µM (inactive); in assay [4] it was 52 µM (inactive); in assay [5], 43 µM (inactive); in [6], 62.8 µM (inactive); in assay [7] it was > 100 µM (inactive). The GI50 is > 100 µM (inactive) in assay [8]; > 100 µM (inactive) in [9]; > 100 µM (inactive) in assay [10]; 22 µM (inactive) in assay [11]; 45.3 µM (inactive) in assay [12]; 89.7 µM (inactive) in assay [13]. Also, the GI50 is > 100 µM (inactive) in assay [14]; 73.1 µM (inactive) in assay [15]; 17.7 µM (inactive) in assay [16]; > 100 µM (inactive) in assay [17]; 31.9 µM (inactive) in assay [18].
On to `CC(C)=CCc1cc2c(cc1O)OC[C@H]1c3cc4c(cc3O[C@@H]21)OCO4`, for which the GI50 in [1] is 18.2 µM (inactive); in assay [3] it was > 100 µM (inactive); in assay [5], 29.8 µM (inactive); in [6], 32.6 µM (inactive); in assay [7], 17.1 µM (inactive); in assay [8] it was 20.6 µM (inactive). In addition, the GI50 in [9] is 66.1 µM (inactive); in assay [10], > 100 µM (inactive); in [11] it was 26.4 µM (inactive); in assay [12] it was 33.6 µM (inactive); in [13], 37.5 µM (inactive); in assay [14], 25.1 µM (inactive). For the same compound, the GI50 in assay [15] is 23.3 µM (inactive); in assay [16], 23 µM (inactive); in [17], 42.1 µM (inactive); in [18], 34.4 µM (inactive).
`CC1CCC2C(C)C(=O)OC2C2(C)C(=O)C=CC12` (configuration not stated): the GI50 in assay [1] was > 10 µM (inactive); in [3] it was > 10 µM (inactive); in assay [4] it was 8.47 µM (inactive); in [5], > 10 µM (inactive); in assay [6] it was 2.83 µM (inactive); in assay [7], 7.76 µM (inactive). The GI50 in [8] was 6.14 µM (inactive); in assay [9], > 10 µM (inactive); in assay [10], > 10 µM (inactive); in assay [11] it was 3.92 µM (inactive); in [12], 3.61 µM (inactive); in assay [13], > 10 µM (inactive). In addition, the GI50 in assay [14], in [15], in assay [16], in [17] and in assay [18] was > 10 µM (inactive) throughout.
As to `NC(=O)C(c1ccccc1)N1OC2C(=O)N(c3cccc4ccccc34)C(=O)C2C1c1c2ccccc2c(Cl)c2ccccc12` (configuration not stated), the GI50 in [1] is 18.6 µM (inactive); in [2], 11.6 µM (inactive); in assay [3], 6.93 µM (inactive); in assay [5], 5.15 µM (inactive); in [6], 10.1 µM (inactive); in assay [7] it was 1.23 µM (inactive). Also, the GI50 in assay [8] is 2.38 µM (inactive); in assay [9], 8.22 µM (inactive); in assay [10] it was 7.53 µM (inactive); in [12] it was 1.21 µM (inactive); in [13] it was 7.57 µM (inactive); in assay [14], 5.28 µM (inactive). For the same compound, the GI50 was 6.98 µM (inactive) in assay [15], 9.27 µM (inactive) in [16], 10.2 µM (inactive) in assay [17] and 8.93 µM (inactive) in assay [18].
`CC(C)(C)COC1C2(OCCO2)C2CCC1(C)C2(C)C` (configuration not stated): the GI50 in assay [1] is 18.8 µM (inactive); in assay [2] it was 29 µM (inactive); in assay [3] it was 54.7 µM (inactive); in [4], 19.9 µM (inactive); in assay [5], 42 µM (inactive); in assay [8], 43.2 µM (inactive). The GI50 was 20.6 µM (inactive) in [9]; 32.7 µM (inactive) in assay [10]; 18.8 µM (inactive) in assay [11]; 21.6 µM (inactive) in assay [12]; 18 µM (inactive) in assay [13]; 40.1 µM (inactive) in assay [14]. Besides, the GI50 in [15] was 23.1 µM (inactive); in assay [16], 28.1 µM (inactive); in assay [17], 19.4 µM (inactive); in [18], 23.8 µM (inactive).
As for `Cc1cn(CC2=NCC(C)(C)N2)c(=O)[nH]c1=O`, the GI50 in assay [1], in assay [2], in [3], in [4], in assay [5] and in assay [6] was > 100 µM (inactive) in each case. Moreover, the GI50 in assay [7] is > 100 µM (inactive); in assay [8], > 100 µM (inactive); in assay [9] it was > 100 µM (inactive); in [10] it was > 100 µM (inactive); in assay [11] it was < 0.01 µM (active); in [12] it was > 100 µM (inactive). The GI50 in assay [13], in [15], in assay [16], in assay [17] and in assay [18] was > 100 µM (inactive) each time.
In the case of `CCOC(=O)c1c(-c2ccc(OC)cc2)c(C#N)c(=S)n(C2OC(CO)C(O)C(O)C2O)c1-c1ccccc1` (configuration not stated), the GI50 in [1] is 25.2 µM (inactive); in assay [2] it was 73.5 µM (inactive); in assay [3], 28.2 µM (inactive); in assay [4] it was 46.9 µM (inactive); in assay [5], > 100 µM (inactive); in [7] it was 27.2 µM (inactive). Moreover, the GI50 in assay [8] was 33.2 µM (inactive); in assay [9], 85.1 µM (inactive); in assay [10] it was 40.6 µM (inactive); in [11] it was 31.2 µM (inactive); in assay [12], 54.7 µM (inactive); in assay [13], 47.1 µM (inactive). Moreover, the GI50 in [14] is 50.7 µM (inactive); in assay [15], 35.6 µM (inactive); in [16] it was 6.85 µM (inactive); in assay [17] it was 48.2 µM (inactive); in assay [18], 52.2 µM (inactive).
Consider `Clc1ccc(Cc2nc3cc(Cl)c(Cl)cc3n2CC2CCCN3CCCCC23)cc1` (configuration not stated), for which the GI50 in [1] was 9.79 µM (inactive); in assay [2] it was 7.87 µM (inactive); in assay [3], 7.8 µM (inactive); in assay [4] it was 24.5 µM (inactive); in assay [5], 12.5 µM (inactive); in [6] it was 12.2 µM (inactive). The GI50 was 9.68 µM (inactive) in [7]; 11.7 µM (inactive) in [8]; 13.9 µM (inactive) in assay [9]; 3.33 µM (inactive) in assay [10]; 3.35 µM (inactive) in assay [12]; 8.11 µM (inactive) in assay [13]. The GI50 in assay [14] was 14.7 µM (inactive); in assay [15], 9.04 µM (inactive); in assay [16] it was 12.2 µM (inactive); in [17], 11 µM (inactive); in [18] it was 18.1 µM (inactive).
For `O=C1Oc2cc(O)cc(/C=C/c3ccc(O)cc3)c2[C@@]12c1c(O)cc(O)cc1OC2c1cccc(O)c1` (some centres not stated), the GI50 in [1] was 20.5 µM (inactive); in assay [2], 33.4 µM (inactive); in [3], 25.3 µM (inactive); in assay [4], 13.4 µM (inactive); in [5], 67.1 µM (inactive); in assay [7], 29 µM (inactive). Besides, the GI50 is 26.1 µM (inactive) in [8]; 30.7 µM (inactive) in assay [9]; 29.2 µM (inactive) in assay [10]; 22 µM (inactive) in [11]; 42.4 µM (inactive) in assay [12]; 32.9 µM (inactive) in assay [13]. Also, the GI50 is 83.8 µM (inactive) in assay [14]; 30.9 µM (inactive) in assay [15]; 31.2 µM (inactive) in [16]; 24.5 µM (inactive) in assay [17]; 44.8 µM (inactive) in assay [18].
Turning to `N/C(=N/O)c1cn(C2OC(CO)C(O)C2O)c2ncnc(NO)c12` (configuration not stated), the GI50 in assay [1] was 1.01 µM (active); in assay [2], 0.0373 µM (active); in assay [3] it was 0.362 µM (active); in assay [4] it was 0.146 µM (active); in [5], 0.203 µM (active); in assay [6] it was 0.0226 µM (active). Besides, the GI50 in assay [7] was 0.0337 µM (active); in assay [8], 0.0407 µM (active); in assay [9] it was 0.514 µM (active); in assay [10], 0.461 µM (active); in [11], 0.0165 µM (active); in assay [12] it was 0.0356 µM (active). Besides, the GI50 in assay [13] was 0.226 µM (active); in assay [15], 0.0621 µM (active); in [16], 1.03 µM (active); in assay [17] it was 0.0556 µM (active); in assay [18] it was 0.037 µM (active).
As for `NCC(=O)NC1(C(=O)O)CCCC1` (H-Gly-[Ac5c]-OH), the GI50 in assay [1], in [2], in assay [3], in [4], in assay [5] and in [6] was > 100 µM (inactive) in each case. In addition, the GI50 in [7], in [8], in assay [9], in assay [10], in [12] and in assay [13] was > 100 µM (inactive) throughout. In addition, the GI50 in [14], in assay [15], in [16], in [17] and in assay [18] was > 100 µM (inactive) in each case.
